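How tested: cells in 96-well plates exposed to compound for 48 hours at five concentrations. Abbreviation: GI50, concentration required for 50% inhibition of growth. TGI marks complete inhibition of growth.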
How the values were obtained:
Assay in all cases: NCI tumour cell line growth inhibition, 48 h
786-0 renal = test system: 786-0 renal
OVCAR-4 ovarian = test system: OVCAR-4 ovarian
RPMI-8226 leukemia = test system: RPMI-8226 leukemia
ACHN renal = test system: ACHN renal
EKVX NSCLC = test system: EKVX NSCLC
NCI/ADR-RES ovarian = test system: NCI/ADR-RES ovarian
SF-295 CNS = test system: SF-295 CNS
MDA-MB-231 breast = test system: MDA-MB-231 breast
IGROV1 ovarian = test system: IGROV1 ovarian
U251 CNS = test system: U251 CNS
NCI-H522 lung = test system: NCI-H522 lung
SK-MEL-2 melanoma = test system: SK-MEL-2 melanoma
SF-268 CNS = test system: SF-268 CNS
SNB-19 CNS = test system: SNB-19 CNS
MCF7 breast = test system: MCF7 breast
M14 melanoma = test system: M14 melanoma
BT-549 breast = test system: BT-549 breast
KM12 colon = test system: KM12 colon
TK-10 renal = test system: TK-10 renal
PC-3 prostate = test system: PC-3 prostate
HS 578T breast = test system: HS 578T breast
HOP-92 NSCLC = test system: HOP-92 NSCLC
SK-OV-3 ovarian = test system: SK-OV-3 ovarian
MOLT-4 leukemia = test system: MOLT-4 leukemia
UO-31 renal = test system: UO-31 renal
SNB-75 CNS = test system: SNB-75 CNS
K-562 leukemia = test system: K-562 leukemia
NCI-H226 lung = test system: NCI-H226 lung
MDA-MB-435 = test system: MDA-MB-435
SK-MEL-28 melanoma = test system: SK-MEL-28 melanoma
HL-60(TB) leukemia = test system: HL-60(TB) leukemia
SK-MEL-5 melanoma = test system: SK-MEL-5 melanoma
NCI-H23 lung = test system: NCI-H23 lung
SW-620 colon = test system: SW-620 colon
DU-145 prostate = test system: DU-145 prostate
CCRF-CEM leukemia = test system: CCRF-CEM leukemia
HCT-116 colon = test system: HCT-116 colon
OVCAR-3 ovarian = test system: OVCAR-3 ovarian
HCT-15 colon = test system: HCT-15 colon
OVCAR-8 ovarian = test system: OVCAR-8 ovarian
NCI-H460 lung = test system: NCI-H460 lung
UACC-62 melanoma = test system: UACC-62 melanoma
SN12C renal = test system: SN12C renal
T-47D breast = test system: T-47D breast
HOP-62 NSCLC = test system: HOP-62 NSCLC
OVCAR-5 ovarian = test system: OVCAR-5 ovarian
LOX IMVI melanoma = test system: LOX IMVI melanoma
RXF 393 renal = test system: RXF 393 renal
COLO 205 colon = test system: COLO 205 colon
CAKI-1 renal = test system: CAKI-1 renal
HT29 colon = test system: HT29 colon
MALME-3M melanoma = test system: MALME-3M melanoma
A498 renal = test system: A498 renal
A549 NSCLC = test system: A549 NSCLC
SR leukemia = test system: SR leukemia
UACC-257 melanoma = test system: UACC-257 melanoma
HCC-2998 colon = test system: HCC-2998 colon

O=S(=O)(Nc1nccs1)c1ccc([As](=O)(O)O)cc1
TGI (786-0 renal): > 100 µM
TGI (OVCAR-4 ovarian): > 100 µM
TGI (RPMI-8226 leukemia): > 100 µM
TGI (ACHN renal): > 100 µM
TGI (EKVX NSCLC): > 100 µM
TGI (NCI/ADR-RES ovarian): > 100 µM
TGI (SF-295 CNS): > 100 µM
TGI (MDA-MB-231 breast): > 100 µM
TGI (IGROV1 ovarian): > 100 µM
TGI (U251 CNS): > 100 µM
TGI (NCI-H522 lung): > 100 µM
TGI (SK-MEL-2 melanoma): > 100 µM
TGI (SF-268 CNS): > 100 µM
TGI (SNB-19 CNS): > 100 µM
TGI (MCF7 breast): > 100 µM
TGI (M14 melanoma): > 100 µM
TGI (BT-549 breast): > 100 µM
TGI (KM12 colon): > 100 µM
TGI (TK-10 renal): > 100 µM
TGI (PC-3 prostate): > 100 µM
TGI (HS 578T breast): > 100 µM
TGI (HOP-92 NSCLC): > 100 µM
TGI (SK-OV-3 ovarian): > 100 µM
TGI (MOLT-4 leukemia): > 100 µM
TGI (UO-31 renal): > 100 µM
TGI (SNB-75 CNS): > 100 µM
TGI (K-562 leukemia): > 100 µM
TGI (NCI-H226 lung): > 100 µM
TGI (MDA-MB-435): > 100 µM
TGI (SK-MEL-28 melanoma): > 100 µM
TGI (HL-60(TB) leukemia): > 100 µM
TGI (SK-MEL-5 melanoma): > 100 µM
TGI (NCI-H23 lung): > 100 µM
TGI (SW-620 colon): > 100 µM
TGI (DU-145 prostate): > 100 µM
TGI (CCRF-CEM leukemia): > 100 µM
TGI (HCT-116 colon): > 100 µM
TGI (OVCAR-3 ovarian): > 100 µM
TGI (HCT-15 colon): > 100 µM
TGI (OVCAR-8 ovarian): > 100 µM
TGI (NCI-H460 lung): > 100 µM
TGI (UACC-62 melanoma): > 100 µM
TGI (SN12C renal): > 100 µM
TGI (T-47D breast): > 100 µM
TGI (HOP-62 NSCLC): > 100 µM
TGI (OVCAR-5 ovarian): > 100 µM
TGI (LOX IMVI melanoma): > 100 µM
TGI (RXF 393 renal): > 100 µM
TGI (COLO 205 colon): > 100 µM
TGI (CAKI-1 renal): > 100 µM
TGI (HT29 colon): > 100 µM
TGI (MALME-3M melanoma): > 100 µM
TGI (A498 renal): > 100 µM
TGI (A549 NSCLC): > 100 µM

C[C@@H]1CC[C@H]2[C@@H](C)C(OC/C=C/COC3O[C@@H]4O[C@@]5(C)CC[C@H]6[C@H](C)CC[C@@H]([C@H]3C)[C@@]46OO5)O[C@@H]3O[C@@]4(C)CC[C@@H]1[C@]32OO4 (stereo not given in full)
GI50 (786-0 renal): 0.0168 µM
TGI (786-0 renal): 18.6 µM
GI50 (RPMI-8226 leukemia): < 0.01 µM
TGI (RPMI-8226 leukemia): 5.77 µM
GI50 (ACHN renal): < 0.0169 µM
GI50 (EKVX NSCLC): 16 µM
TGI (EKVX NSCLC): > 100 µM
GI50 (NCI/ADR-RES ovarian): 0.0887 µM
TGI (NCI/ADR-RES ovarian): 14.8 µM
GI50 (SF-295 CNS): < 0.0252 µM
GI50 (MDA-MB-231 breast): < 0.0269 µM
TGI (MDA-MB-231 breast): 1.11 µM
GI50 (IGROV1 ovarian): 0.77 µM
TGI (IGROV1 ovarian): 38 µM
GI50 (U251 CNS): < 0.01 µM
TGI (U251 CNS): > 20.9 µM
GI50 (NCI-H522 lung): 0.0898 µM
TGI (NCI-H522 lung): > 100 µM
GI50 (SK-MEL-2 melanoma): 0.773 µM
TGI (SK-MEL-2 melanoma): > 100 µM
GI50 (SF-268 CNS): 0.045 µM
TGI (SF-268 CNS): > 47.1 µM
GI50 (SNB-19 CNS): 5.19 µM
TGI (SNB-19 CNS): > 100 µM
GI50 (MCF7 breast): < 0.01 µM
TGI (MCF7 breast): 20.1 µM
GI50 (M14 melanoma): 0.0265 µM
TGI (M14 melanoma): 19.1 µM
GI50 (BT-549 breast): 0.0304 µM
TGI (BT-549 breast): > 100 µM
GI50 (KM12 colon): < 0.01 µM
GI50 (TK-10 renal): < 0.0104 µM
TGI (TK-10 renal): 24.8 µM
GI50 (PC-3 prostate): < 0.01 µM
TGI (PC-3 prostate): > 100 µM
GI50 (HS 578T breast): 0.0311 µM
TGI (HS 578T breast): > 74.9 µM
GI50 (HOP-92 NSCLC): < 0.0179 µM
TGI (HOP-92 NSCLC): 45.4 µM
GI50 (SK-OV-3 ovarian): 19.5 µM
TGI (SK-OV-3 ovarian): > 100 µM
GI50 (MOLT-4 leukemia): < 0.01 µM
TGI (MOLT-4 leukemia): > 47.2 µM
GI50 (UO-31 renal): 0.152 µM
TGI (UO-31 renal): > 92.9 µM
GI50 (K-562 leukemia): < 0.0201 µM
TGI (K-562 leukemia): > 41.6 µM
GI50 (NCI-H226 lung): < 0.0206 µM
TGI (NCI-H226 lung): 0.832 µM
GI50 (MDA-MB-435): 0.0161 µM
TGI (MDA-MB-435): 25.1 µM
GI50 (SK-MEL-28 melanoma): 1.32 µM
TGI (SK-MEL-28 melanoma): > 100 µM
GI50 (HL-60(TB) leukemia): < 0.01 µM
GI50 (SK-MEL-5 melanoma): 0.0491 µM
TGI (SK-MEL-5 melanoma): 18.6 µM
GI50 (SR leukemia): < 0.01 µM
TGI (SR leukemia): 3.85 µM
GI50 (NCI-H23 lung): < 0.01 µM
TGI (NCI-H23 lung): 18.5 µM
GI50 (SW-620 colon): < 0.01 µM
TGI (SW-620 colon): > 100 µM
GI50 (DU-145 prostate): 30.5 µM
TGI (DU-145 prostate): > 100 µM
GI50 (CCRF-CEM leukemia): < 0.01 µM
TGI (CCRF-CEM leukemia): > 50.6 µM
GI50 (HCT-116 colon): < 0.01 µM
TGI (HCT-116 colon): 13.9 µM
GI50 (OVCAR-3 ovarian): < 0.0109 µM
TGI (OVCAR-3 ovarian): 1.07 µM
GI50 (HCT-15 colon): < 0.01 µM
TGI (HCT-15 colon): > 33 µM
GI50 (OVCAR-8 ovarian): < 0.01 µM
TGI (OVCAR-8 ovarian): > 38 µM
GI50 (NCI-H460 lung): < 0.01 µM
TGI (NCI-H460 lung): > 41.4 µM
GI50 (UACC-62 melanoma): 0.0363 µM
TGI (UACC-62 melanoma): > 100 µM
GI50 (SN12C renal): < 0.0147 µM
TGI (SN12C renal): 2.06 µM
GI50 (T-47D breast): < 0.01 µM
TGI (T-47D breast): > 100 µM
GI50 (HOP-62 NSCLC): 0.0791 µM
TGI (HOP-62 NSCLC): 34.2 µM
GI50 (OVCAR-5 ovarian): < 0.01 µM
TGI (OVCAR-5 ovarian): 0.257 µM
GI50 (LOX IMVI melanoma): < 0.01 µM
TGI (LOX IMVI melanoma): 11.4 µM
GI50 (RXF 393 renal): < 0.01 µM
TGI (RXF 393 renal): 28.2 µM
GI50 (UACC-257 melanoma): 0.0401 µM
TGI (UACC-257 melanoma): 48 µM
GI50 (COLO 205 colon): < 0.01 µM
TGI (COLO 205 colon): 0.228 µM
GI50 (HCC-2998 colon): 0.0376 µM
TGI (HCC-2998 colon): 12.1 µM
GI50 (CAKI-1 renal): 0.046 µM
TGI (CAKI-1 renal): 2.87 µM
GI50 (HT29 colon): < 0.01 µM
TGI (HT29 colon): > 100 µM
GI50 (MALME-3M melanoma): 0.0428 µM
TGI (MALME-3M melanoma): 61.5 µM
GI50 (A498 renal): 15.7 µM
TGI (A498 renal): > 100 µM
GI50 (A549 NSCLC): < 0.0161 µM
TGI (A549 NSCLC): > 68.3 µM
